Experimental data taken from PubChem BioAssay AID2784 (Sanford-Burnham Center for Chemical Genomics, 2010).
The source made the active and inactive calls. No rule for the calls is given here.

What follows are compounds tested against Apelin receptor (Homo sapiens) (UniProt P35414) (assay: APJ antagonist potency in beta-arrestin recruitment, dose response, cell-based, luminescence, uHTS hits (AID 2784)). Conditions: antagonist mode.
Chain of Apelin receptor (Homo sapiens) (P35414 whole entry, looked up): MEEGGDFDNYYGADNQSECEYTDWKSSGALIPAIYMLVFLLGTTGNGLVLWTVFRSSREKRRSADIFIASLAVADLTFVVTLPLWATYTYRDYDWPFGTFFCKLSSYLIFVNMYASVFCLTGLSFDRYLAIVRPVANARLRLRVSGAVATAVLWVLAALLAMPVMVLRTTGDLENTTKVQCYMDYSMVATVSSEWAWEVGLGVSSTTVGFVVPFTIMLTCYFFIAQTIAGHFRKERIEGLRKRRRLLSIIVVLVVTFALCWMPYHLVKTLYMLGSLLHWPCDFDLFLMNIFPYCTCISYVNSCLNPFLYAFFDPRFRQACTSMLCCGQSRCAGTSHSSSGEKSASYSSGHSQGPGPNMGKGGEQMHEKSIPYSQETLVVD

For O=C(CCCC(=O)Nc1cccc(Br)c1)N/N=C/c1cc([N+](=O)[O-])ccc1O, which IC50 is on record?
Its IC50 is “inactive”.

How did the IC50 turn out when Cc1ccc(NS(=O)(=O)c2cc([N+](=O)[O-])ccc2N/N=C/c2sc(N3CCOCC3)nc2-c2ccccc2)c(C)c1 was run?
The IC50 was > 40 µM (inactive).

Which IC50 does the source give for COc1ccc2c(c1)C(=O)[C@H](O)[C@@H](c1ccc(OC)c(Br)c1)O2 here?
Its IC50 is 3.07 µM.

For CN(/N=C/c1cc([N+](=O)[O-])ccc1O)c1ccccc1, which IC50 is on record?
The IC50 was “inactive”.

How did the IC50 turn out when O=[N+]([O-])c1ccc(O)c(/C=N/Nc2ccc(Cl)nn2)c1 was run?
The IC50 was 4.18 µM.

How did the IC50 turn out when CCOC(=O)C1=C(C)NC2=C(C(=O)CC(c3cccs3)C2)C1c1cccs1 (configuration not stated) was run?
Its IC50 is “inactive”.

For COc1ccc(NS(=O)(=O)c2cc([N+](=O)[O-])ccc2N/N=C\c2c(C)[nH]c3ccccc23)cc1, which IC50 is on record?
The IC50 was > 40 µM (inactive).

CC1=NN(c2ccc(C)cc2)C(=O)/C1=C/c1ccc(-c2cc([N+](=O)[O-])ccc2O)o1 was tested. Which IC50 did it give?
The IC50 was > 40 µM (inactive).

How did the IC50 turn out when CCOCCOC(=O)C1=C(C)NC2=C(C(=O)CC(c3cccs3)C2)C1c1ccsc1 (configuration not stated) was run?
Its IC50 is > 40 µM (inactive).

For CCOC(=O)C1=NNC(C(=O)c2ccc(Cl)cc2)C1c1ccccc1 (configuration not stated), which IC50 is on record?
Its IC50 is 10.6 µM.

With CC1=NN(C(N)=S)C(=O)C1N=Nc1ccc([N+](=O)[O-])cc1 (configuration not stated) as the compound, how does the IC50 read?
Its IC50 is > 40 µM (inactive).

Which IC50 does the source give for Cn1c(O)c(N=Nc2nc(-c3ccccc3)cs2)c2ccccc21 here?
The IC50 was > 40 µM (inactive).

With CC1=Nc2ccccc2/C1=C/c1sc(=N)n(-c2nccs2)c1O as the compound, how does the IC50 read?
Its IC50 is > 40 µM (inactive).

For COC(=O)C1NN=C(C(=O)c2ccc(Cl)cc2)C1c1ccc(OC)cc1 (configuration not stated), which IC50 is on record?
Its IC50 is 7.27 µM.

Cc1ncc(CO)c(/C=N/Nc2ccc(C(F)(F)F)cn2)c1O was tested. Which IC50 did it give?
The IC50 was 9.42 µM.

Which IC50 does the source give for O=C(O)c1ccccc1N=Nc1c(O)[nH]c2ccc([N+](=O)[O-])cc12 here?
Its IC50 is > 40 µM (inactive).

With COc1ccc2c(c1)C(=O)[C@@H](O)[C@H](c1ccc(OC)c(Br)c1)O2 as the compound, how does the IC50 read?
The IC50 was > 40 µM (inactive).
